Assay results published in PubChem BioAssay (NCI).
Several values for one entry are separate records, joined by “and”; a condition that tells them apart may be missing. Equal values may be shown once.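 Method: 48-hour compound exposure of cells in 96-well plates, five concentrations, linear interpolation of endpoints. GI50 marks 50% less growth. The concentration for full growth arrest is given as TGI.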

Experiments:
Experiment in all cases: NCI tumour cell line growth inhibition, 48 h
[1] = test system: NCI-H23 lung
[2] = test system: OVCAR-8 ovarian
[3] = test system: BT-549 breast
[4] = test system: 786-0 renal
[5] = test system: MDA-N
[6] = test system: HS 578T breast
[7] = test system: SNB-75 CNS
[8] = test system: CAKI-1 renal
[9] = test system: HCT-15 colon

SMILES | GI50 [1] | TGI [1] | GI50 [2] | TGI [2] | GI50 [3] | TGI [3] | GI50 [4] | TGI [4] | TGI [5] | GI50 [6] | TGI [6] | GI50 [7] | TGI [7] | GI50 [8] | TGI [8] | TGI [9] | GI50 [9]
CC1=C(/C=C/C(C)=C/C=C/C(C)=C/C(=O)Nc2ccc(O)cc2)C(C)(C)CCC1 | 1.83 µM | 5.41 µM and 5.3 µM | 2.56 µM | 8.48 µM and 10.2 µM | 0.826 µM | 7.44 µM and 18.6 µM | 1.72 µM | 4.36 µM and 10.9 µM | 8.35 µM | 6.25 µM | 27.4 µM and 13.7 µM | 1.81 µM | 5.85 µM and 23.2 µM | 3.87 µM | 15.8 µM and 13.6 µM | 17.9 µM and 25.2 µM | 
CN1c2ccccc2S(=O)(=O)n2c(COc3ccc(Cl)cc3)nnc21 |  | > 100 µM |  | > 100 µM |  | > 100 µM |  | > 100 µM | > 100 µM |  | > 100 µM |  |  |  | > 100 µM | > 100 µM | 
O=C(O)CCCCn1cnc2c(=S)nc[nH]c21 |  | > 100 µM |  | > 100 µM |  | > 100 µM |  | > 100 µM | > 100 µM |  | > 100 µM |  | > 100 µM |  | > 100 µM | > 100 µM | 
NCC1OC(OC2C(CO)OC(OC3C(O)C(N)CC(N)C3OC3OC(CO)C(O)C(O)C3N)C2O)C(N)C(O)C1O (stereo not given) | > 50 µg/mL | > 50 µg/mL | > 50 µg/mL | > 50 µg/mL | > 50 µg/mL | > 50 µg/mL | > 50 µg/mL | > 50 µg/mL |  | > 50 µg/mL | > 50 µg/mL | > 50 µg/mL | > 50 µg/mL | > 50 µg/mL | > 50 µg/mL | > 50 µg/mL | > 50 µg/mL
N#CN1CCC[C@H]1C(=O)N1CCc2c(-c3[nH]nc4ncccc34)cccc21 | < 0.01 µM | 17.3 µM | < 0.01 µM | 11 µM | < 0.01 µM | 0.0993 µM | < 0.01 µM | 11.5 µM |  | 0.239 µM | > 100 µM | 0.211 µM | 2.78 µM | < 0.01 µM | 1.46 µM | 11.3 µM | < 0.01 µM
C=C1CCC2C3(C)COC(c4ccc(SC)cc4)OC3CCC2(C)C1C/C=C1/C(=O)OCC1O (stereo not given) | 4.48 µM | 17.4 µM | 2.14 µM | 6.56 µM | 4.38 µM | 20.9 µM | 6.7 µM | 19.2 µM |  | 5.17 µM | 17 µM | 10.1 µM | 21.7 µM | 11.2 µM | 28.2 µM | 7.96 µM | 2.37 µM
COc1cc(C2CC(c3cc(C)ccc3C)=NN2c2ccc(S(=O)(=O)NC(=O)NCc3ccccc3)cc2)cc(OC)c1OC (stereo not given) | 3.37 µM | 19.5 µM | 3.77 µM | 32.4 µM | 3.08 µM | 12.6 µM | 3.79 µM | 23.5 µM |  | 2.68 µM | 7.67 µM | 2.33 µM | 9.32 µM | 3.17 µM | 19.9 µM | > 100 µM | 3.18 µM
O=C(c1cccs1)c1c(C(F)(F)F)n([O-])c2ccc(F)cc2[n+]1=O | 1.22 µM | 2.6 µM | 0.528 µM | 1.34 µM | 0.815 µM | 2.6 µM | 1.32 µM | 2.74 µM |  | 1.67 µM | 6.71 µM | 1.47 µM | 2.82 µM | 1.62 µM | 3.14 µM | 1.64 µM | 0.435 µM
CCOC(=O)c1c(C)n2c(=O)cc(C)c3c(OC(C)=O)c(OC(C)=O)cc1c32 | 4.64 µM | > 34.7 µM | 3.91 µM | > 61.2 µM | 6.21 µM | 46.1 µM | 3.75 µM |  |  | 4.52 µM | > 65.2 µM | 6.08 µM | > 28.3 µM | 6.37 µM | > 65.9 µM | 17.2 µM | 3.37 µM
COc1ccc(-c2cc(/C=C3\C(=O)Nc4ccc(OC)cc43)[nH]n2)cc1 | > 100 µM | > 100 µM | 19.5 µM | > 100 µM | > 100 µM | > 100 µM | > 100 µM | > 100 µM |  | 16.8 µM | > 100 µM | 3.19 µM | 25.5 µM | > 100 µM | > 100 µM | > 100 µM | 0.687 µM
CC(=O)OCC1OC(OC2=C(CC=C(Cl)Cl)C(=O)c3ccccc3C2=O)C(OC(C)=O)C(OC(C)=O)C1OC(C)=O (stereo not given) | 13.2 µM | 36.8 µM | 2.96 µM | 8.29 µM | 7.03 µM | 20.4 µM | 16.6 µM | 31.8 µM |  | 3.98 µM | 32.2 µM | 2.68 µM | 19.9 µM | 4.91 µM | 17.6 µM | 21.3 µM | 3.64 µM
